Test results reported in US20080032978A1, “SOLUBLE EPOXIDE HYDROLASE INHIBITORS” (Arete Therapeutics, Inc., priority 2006, published 2008).

Tested on: soluble epoxide hydrolase (sEH)
Experiment: Fluorescent assay for mouse and human soluble epoxide hydrolase (CMNPC substrate)
Assay type: biochemical
Text: Fluorescent Assay for Mouse and Human Soluble Epoxide Hydrolase Recombinant mouse sEH (MsEH) and human sEH (HsEH) were produced in a baculovirus expression system as previously reported. Grant et al., J. Biol. Chem., 268:17628-17633 (1993); Beetham et al., Arch. Biochem. Biophys., 305:197-201 (1993). The expressed proteins were purified from cell lysate by affinity chromatography. Wixtrom et al., Anal. […] Protein concentration was quantified using the Pierce BCA assay using bovine serum albumin as the calibrating standard. […] Solutions: Bis/Tris HCl 25 mM 7.0 containing 0.1 mg/mL of BSA (buffer […] at 0.25 mM in DMSO. Mother solution of enzyme in buffer A (Mouse sEH at 6 μg/mL and Human sEH at 5 μg/mL). Inhibitor dissolved in DMSO at the appropriate concentration. Protocol: In a black 96 well plate, fill all the wells with 150 μL of buffer A. Add 2 μL of DMSO in well A2 and A3, and then add 2 μL of inhibitor solution in A1 and A4 through A12. Add 150 μL of buffer A in a row A, then mix several time and transfer 150 μL to row B. Repeat this operation up to row H. The 150 μL removed from row H go to the trash. Add 20 μL of buffer A in column 1 and 2, then add 20 μL of enzyme solution to column 3 to 12. Incubate the plate for 5 minutes in the plate reader at 30° C. During incubation prepare the working solution of substrate by mixing 3.68 mL of buffer A (4×0.920 mL) with 266 μL (2×133 μL) of substrate solution). At t=0, add 30 μL of working substrate solution with multi-channel pipette labeled “Briggs 303” and start the reading ([S]final: 5 μM). Read with ex: 330 nm (20 nm) and em: 465 nm (20 nm) every 30 second for 10 minutes. The velocities are used to analyze and calculate the IC50s.

O=C(Nc1ccc(Cl)cc1)Nc1ccc(C(=O)N2CCC(N3CCOCC3)CC2)cc1 [Compound 8, 1-(4-Chloro-phenyl)-3-[4-(4-morpholin-4-yl-piperidine-1-carbonyl)-phenyl]-urea]
% I (Conc of I 5000 nM): 96%

CN(CCN1CCOCC1)C(=O)c1ccc(NC(=O)Nc2ccc(C(F)(F)F)cc2)cc1 [Compound 41, N-Methyl-N-(2-morpholin-4-yl-ethyl)-4-[3-(4-trifluoromethyl-phenyl)-ureido]-benzamide]
% I (Conc of I 50 nM): 93%

CN(CC(=O)O)C(=O)c1ccc(NC(=O)NC23CC4CC(CC(C4)C2)C3)cc1 [Compound 6, {[4-(3-Adamantan-1-yl-ureido)-benzoyl]-methyl-amino}-acetic acid]
% I (Conc of I 5000 nM): 93%

CN1CCN(C(=O)c2cccc(NC(=O)Nc3ccc(C(F)(F)F)cc3)c2)CC1 [Compound 19, 1-[3-(4-Methyl-piperazine-1-carbonyl)-phenyl]-3-(4-trifluoromethyl-phenyl)-urea]
% I (Conc of I 500 nM): 94%

O=C(Nc1ccc(Cl)cc1)Nc1ccc(C(=O)N2CCOCC2)cc1 [Compound 2, 1-(4-Chloro-phenyl)-3-[4-(morpholine-4-carbonyl)-phenyl]-urea]
% I (Conc of I 500 nM): 94%

O=C(NC1CCC(C(=O)N2CCC(C(=O)O)CC2)CC1)NC12CC3CC(CC(C3)C1)C2 (centres unmarked) [Compound 21, 1-[4-(3-Adamantan-1-yl-ureido)-cyclohexanecarbonyl]-piperidine-4-carboxylic acid]
% I (Conc of I 500 nM): 76%

O=C(Nc1ccc(C(F)(F)F)cc1)Nc1ccc(C(=O)N2CCOCC2)c(F)c1 [Compound 22, 1-[3-Fluoro-4-(morpholine-4-carbonyl)-phenyl]-3-(4-trifluoromethyl-phenyl)-urea]
% I (Conc of I 50 nM): 97%

O=C(Nc1ccc(C(F)(F)F)cc1)Nc1ccc(F)c(C(=O)N2CCOCC2)c1 [Compound 16, 1-[4-Fluoro-3-(morpholine-4-carbonyl)-phenyl]-3-(4-trifluoromethyl-phenyl)-urea]
% I (Conc of I 50 nM): 87%

CN1CCN(C(=O)c2ccc(NC(=O)Nc3ccc(C(F)(F)F)cc3)cc2F)CC1 [Compound 30, 1-[3-Fluoro-4-(4-methyl-piperazine-1-carbonyl)-phenyl]-3-(4-trifluoromethyl-phenyl)-urea]
% I (Conc of I 50 nM): 88%

CN1CCN(C(=O)c2ccc(NC(=O)Nc3ccc(F)cc3)cc2)CC1 [Compound 24, 1-(4-Fluoro-phenyl)-3-[4-(4-methyl-piperazine-1-carbonyl)-phenyl]-urea]
% I (Conc of I 500 nM): 64%

O=C(Nc1ccc(C(=O)N2CCOCC2)cc1)Nc1ccc(C(F)(F)F)cc1 [Compound 17, 1-[4-(Morpholine-4-carbonyl)-phenyl]-3-(4-trifluoromethyl-phenyl)-urea]
% I (Conc of I 50 nM): 89%

O=C(Nc1ccccc1)Nc1ccc(C(=O)N2CCOCC2)cc1 [Compound 1, 1-[4-(Morpholine-4-carbonyl)-phenyl]-3-phenyl-urea]
% I (Conc of I 5000 nM): 97%

O=C(Nc1cccc(C(=O)N2CCC(C(=O)O)CC2)c1)NC12CC3CC(CC(C3)C1)C2 [Compound 13, 1-[3-(3-Adamantan-1-yl-ureido)-benzoyl]-piperidine-4-carboxylic acid]
% I (Conc of I 5000 nM): 99%

CN1CCN(C(=O)c2ccc(NC(=O)Nc3ccc(OC(F)(F)F)cc3)cc2)CC1 [Compound 27, 1-[4-(4-Methyl-piperazine-1-carbonyl)-phenyl]-3-(4-trifluoromethoxy-phenyl)-urea]
% I (Conc of I 50 nM): 84%

CC(C)N1CCN(C(=O)c2ccc(NC(=O)Nc3ccc(OC(F)(F)F)cc3)cc2)CC1 [Compound 32, 1-[4-(4-Isopropyl-piperazine-1-carbonyl)-phenyl]-3-(4-trifluoromethoxy-phenyl)-urea]
% I (Conc of I 50 nM): 92%

CN1CCN(C(=O)c2ccc(NC(=O)Nc3ccc(C(F)(F)F)cc3)cc2)CC1 [Compound 18, 1-[4-(4-Methyl-piperazine-1-carbonyl)-phenyl]-3-(4-trifluoromethyl-phenyl)-urea]
% I (Conc of I 50 nM): 75%

CN(CC(=O)O)C(=O)c1cccc(NC(=O)NC23CC4CC(CC(C4)C2)C3)c1 [Compound 7, {[3-(3-Adamantan-1-yl-ureido)-benzoyl]-methyl-amino}-acetic acid]
% I (Conc of I 5000 nM): 90%
